Reference: patent US9204653B2, “5-fluoro pyrimidine derivatives” (DOW AGROSCIENCES LLC, priority 2008, dated 2015)
Where two headings read alike, the source gives them in different places.

System: Mycosphaerella graminicola; Anamorph: Septoria tritici; Bayer Code SEPTTR
Test: Leaf blotch of wheat, foliar fungicide treatment, one day protectant (1DP) or three day curative (3DC)
Assay type: in vivo, Septoria tritici on wheat plants (variety Yuma)
Details: Zymoseptoria tritici, rating of percent disease control
[1] = 24 h, one day protectant (1DP), read-out: SETTTR 1DP 25 ppm
[2] = 24 h, one day protectant (1DP), read-out: SEPTTR 1DP 100 ppm
[3] = 72 h, three day curative (3DC), read-out: SEPTTR 3DC 25 ppm
[4] = 72 h, three day curative (3DC), read-out: SEPTTR 3DC 100 ppm

| SMILES | pest or weed control at 25 ppm [1] | pest or weed control at 100 ppm [2] | pest or weed control at 25 ppm [3] | pest or weed control at 100 ppm [4] |
| --- | --- | --- | --- | --- |
| COc1ccccc1COc1ncc(F)c(NC(C)=O)n1 [Compound 309] | 76 to 100% | 76 to 100% | 76 to 100% | 76 to 100% |
| Nc1nc(ON=C(c2ccccc2)c2ccccc2)ncc1F [Compound 312] | 76 to 100% | 76 to 100% | 76 to 100% | 76 to 100% |
| CCOC(=O)Nc1nc(OCc2cccc(C#N)c2)ncc1F [Compound 314] | 76 to 100% | 76 to 100% | 76 to 100% | 76 to 100% |
| COCCCOc1ncc(F)c(N)n1 [Compound 315] | 51 to 75% | 76 to 100% | 76 to 100% | 76 to 100% |
| COc1ccccc1COc1ncc(F)c(/N=C2\CCCCN2C)n1 [Compound 317] | 51 to 75% | 76 to 100% | 26 to 50% | 76 to 100% |
| Cn1nc(-c2ccccc2)nc1-c1ccccc1COc1ncc(F)c(N)n1 [Compound 320] | 0 to 25% | 0 to 25% | 26 to 50% | 26 to 50% |
| COCCCOc1ncc(F)c(NC(C)=O)n1 [Compound 321] | 76 to 100% | 76 to 100% | 76 to 100% | 76 to 100% |
| Oc1ncc(F)c(N/N=C/c2ccccc2Cl)n1 [Compound 322] | 0 to 25% | 0 to 25% | 0 to 25% | 0 to 25% |
| Cc1ccc(COc2ncc(F)c(N)n2)c(C)c1 [Compound 323] | 76 to 100% | 76 to 100% | 76 to 100% | 76 to 100% |
| O=[N+]([O-])c1ccccc1SNc1nc(OCc2ccc(F)c(F)c2)ncc1F [Compound 324] | 76 to 100% | 76 to 100% | 0 to 25% | 26 to 50% |
| Cc1ccc(COc2ncc(F)c(NO)n2)cc1 [Compound 325] | 76 to 100% | 76 to 100% | 76 to 100% | 76 to 100% |
| CN1CCCC/C1=N\c1nc(OCc2cccc(F)c2)ncc1F [Compound 326] | 76 to 100% | 76 to 100% | 51 to 75% | 76 to 100% |
| COc1cccc(COc2ncc(F)c(/N=C3\CCCCN3C)n2)c1 [Compound 327] | 51 to 75% | 76 to 100% | 51 to 75% | 76 to 100% |
| CCOc1ccccc1COc1ncc(F)c(N)n1 [Compound 328] | 76 to 100% | 76 to 100% | 76 to 100% | 76 to 100% |
| COc1ccccc1COc1ncc(F)c(NC(=O)Nc2ccccc2F)n1 [Compound 329] | 0 to 25% | 0 to 25% | 0 to 25% | 0 to 25% |
| Fc1cnc(OCc2ccccc2)nc1NCOCc1ccccc1 [Compound 330] | 0 to 25% | 76 to 100% | 0 to 25% | 26 to 50% |
| CCOCNc1nc(OCc2ccccc2OC)ncc1F [Compound 331] | 76 to 100% | 76 to 100% | 76 to 100% | 76 to 100% |
| O=C(Nc1ccccc1)Nc1nc(OCc2cccc(F)c2)ncc1F [Compound 332] | 76 to 100% | 76 to 100% | 51 to 75% | 26 to 50% |
| COc1cccc(COc2ncc(F)c(-n3ccnc3)n2)c1 [Compound 334] | 76 to 100% | 76 to 100% | 76 to 100% | 76 to 100% |
| CC(Oc1ncc(F)c(/N=C/N2CCOCC2)n1)c1ccc(F)cc1 (stereo not shown) [Compound 338] | 76 to 100% | 76 to 100% | 76 to 100% | 76 to 100% |
| CNc1nc(OCc2ccc(OC)cc2)ncc1F [Compound 339] | 0 to 25% | 26 to 50% | 26 to 50% | 51 to 75% |
| CCN(N)c1nc(OCc2cccc(OC)c2)ncc1F [Compound 340] | 0 to 25% | 76 to 100% | 26 to 50% | 76 to 100% |
| CCOC(=O)CCC(=O)NNc1nc(OCc2ccccc2)ncc1F [Compound 344] | 26 to 50% | 26 to 50% | 0 to 25% | 26 to 50% |

| SMILES | pest or weed control at 25 ppm [1] | pest or weed control at 100 ppm [2] | pest or weed control at 25 ppm [3] | pest or weed control at 100 ppm [4] |
| --- | --- | --- | --- | --- |
| CC[Si](CC)(CC)Nc1nc(OCc2cccc(F)c2)ncc1F [Compound 346] | 76 to 100% | 76 to 100% | 76 to 100% | 76 to 100% |
| Nc1nc(OS(=O)(=O)c2cccs2)ncc1F [Compound 348] | 76 to 100% | 76 to 100% | 76 to 100% | 76 to 100% |
| COc1cc(Cl)c(COc2ncc(F)c(N)n2)cc1OC [Compound 350] | 76 to 100% | 76 to 100% | 76 to 100% | 76 to 100% |
| COc1ccc(OC)c(COc2ncc(F)c(N)n2)c1 [Compound 351] | 76 to 100% | 76 to 100% | 76 to 100% | 76 to 100% |
| COc1ccccc1COc1ncc(F)c(NCOCc2ccccc2)n1 [Compound 354] | 51 to 75% | 76 to 100% | 26 to 50% | 76 to 100% |
| Nc1nc(OC(c2ccc(F)cc2)c2ccc(F)cc2)ncc1F [Compound 355] | 76 to 100% | 76 to 100% | 76 to 100% | 76 to 100% |
| Fc1cnc(OCc2ccccc2)nc1N/N=C/c1ccco1 [Compound 357] | 26 to 50% | 26 to 50% | 0 to 25% | 51 to 75% |
| CC(C)=NNc1nc(OCc2ccc(F)cc2)ncc1F [Compound 358] | 0 to 25% | 51 to 75% | 26 to 50% | 76 to 100% |
| CN(C)/C=N/c1nc(OS(=O)(=O)c2ccc(Cl)cc2)ncc1F [Compound 359] | 76 to 100% | 76 to 100% | 76 to 100% | 26 to 50% |
| O=C(Nc1nc(OCc2cccc(F)c2)ncc1F)OCc1cccc(F)c1 [Compound 360] | 76 to 100% | 76 to 100% | 76 to 100% | 76 to 100% |
| CN(C)/C=N/c1nc(OC(=O)Oc2ccc(Cl)cc2)ncc1F [Compound 361] | 51 to 75% | 76 to 100% | 76 to 100% | 76 to 100% |
| COCNc1nc(OCc2ccc(F)cc2)ncc1F [Compound 362] | 51 to 75% | 76 to 100% | 51 to 75% | 76 to 100% |
| O=C(Nc1nc(OCc2ccc(F)cc2)ncc1F)c1ccccc1 [Compound 364] | 76 to 100% | 76 to 100% | 76 to 100% | 76 to 100% |
| Cc1cc(COc2ncc(F)c(N)n2)ccc1F [Compound 365] | 76 to 100% | 76 to 100% | 76 to 100% | 76 to 100% |
| Cn1ccc(COc2ncc(F)c(NSc3ccccc3[N+](=O)[O-])n2)n1 [Compound 366] | 76 to 100% | 76 to 100% | 51 to 75% | 76 to 100% |
| COc1cccc(COc2ncc(F)c(N(N)c3ccccc3)n2)c1 [Compound 367] | 0 to 25% | 0 to 25% | 0 to 25% | 0 to 25% |
| Nc1nc(OCc2cccc(OC(F)F)c2)ncc1F [Compound 368] | 76 to 100% | 76 to 100% | 76 to 100% | 76 to 100% |
| Fc1cnc(OCc2cccs2)nc1/N=C/N1CCOCC1 [Compound 369] | 76 to 100% | 76 to 100% | 76 to 100% | 76 to 100% |
| O=C(NCc1ccccc1F)Nc1nc(OCc2ccccc2)ncc1F [Compound 371] | 0 to 25% | 0 to 25% | 0 to 25% | 0 to 25% |
| CN(CCOc1ncc(F)c(N)n1)c1ccccc1 [Compound 372] | 26 to 50% | 76 to 100% | – | – |
| CCOCNc1nc(OCc2ccn(C)n2)ncc1F [Compound 374] | 51 to 75% | 76 to 100% | 76 to 100% | 76 to 100% |
| CCOCCOc1cccc(COc2ncc(F)c(NC)n2)c1 [Compound 375] | 0 to 25% | 0 to 25% | 26 to 50% | 76 to 100% |
